{"source": "ChEMBL document CHEMBL1131286", "about": "“Design and synthesis of m1-selective muscarinic agonists: (R)-(-)-(Z)-1-Azabicyclo[2.2.1]heptan-3-one, O-(3-(3'-methoxyphenyl)-2-propynyl)oxime maleate (CI-1017), a functionally m1-selective muscarinic agonist” (J Med Chem, 1998)", "key": {"[1]": {"target": "Muscarinic acetylcholine receptor M3 (Homo sapiens) (UniProt P20309)", "sequence (P20309 whole entry, looked up)": "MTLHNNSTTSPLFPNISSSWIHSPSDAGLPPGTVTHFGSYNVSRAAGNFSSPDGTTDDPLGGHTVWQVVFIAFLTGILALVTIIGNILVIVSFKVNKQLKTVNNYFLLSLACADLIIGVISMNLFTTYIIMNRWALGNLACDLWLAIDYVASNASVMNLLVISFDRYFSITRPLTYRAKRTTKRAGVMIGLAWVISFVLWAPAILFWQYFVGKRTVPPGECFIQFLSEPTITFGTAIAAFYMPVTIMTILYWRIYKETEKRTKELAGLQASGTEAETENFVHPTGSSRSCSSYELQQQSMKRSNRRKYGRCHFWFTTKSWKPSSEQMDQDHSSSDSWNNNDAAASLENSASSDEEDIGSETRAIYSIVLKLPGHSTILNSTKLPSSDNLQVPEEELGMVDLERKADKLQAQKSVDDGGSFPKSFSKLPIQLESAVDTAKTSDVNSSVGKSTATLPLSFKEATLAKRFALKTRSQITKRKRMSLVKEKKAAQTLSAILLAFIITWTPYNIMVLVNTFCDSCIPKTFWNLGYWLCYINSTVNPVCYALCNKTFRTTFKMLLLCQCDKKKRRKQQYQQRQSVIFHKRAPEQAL", "assay": "Inositol phosphate(PI) accumulation in CHO cells expressing Muscarinic acetylcholine receptor M3 as maximal response at 100 uM relative to carbachol", "format": "functional, cell-based"}, "[2]": {"target": "T1, Muscarinic acetylcholine receptor M5 (Homo sapiens) (UniProt P08912)", "T1 sequence (whole entry)": "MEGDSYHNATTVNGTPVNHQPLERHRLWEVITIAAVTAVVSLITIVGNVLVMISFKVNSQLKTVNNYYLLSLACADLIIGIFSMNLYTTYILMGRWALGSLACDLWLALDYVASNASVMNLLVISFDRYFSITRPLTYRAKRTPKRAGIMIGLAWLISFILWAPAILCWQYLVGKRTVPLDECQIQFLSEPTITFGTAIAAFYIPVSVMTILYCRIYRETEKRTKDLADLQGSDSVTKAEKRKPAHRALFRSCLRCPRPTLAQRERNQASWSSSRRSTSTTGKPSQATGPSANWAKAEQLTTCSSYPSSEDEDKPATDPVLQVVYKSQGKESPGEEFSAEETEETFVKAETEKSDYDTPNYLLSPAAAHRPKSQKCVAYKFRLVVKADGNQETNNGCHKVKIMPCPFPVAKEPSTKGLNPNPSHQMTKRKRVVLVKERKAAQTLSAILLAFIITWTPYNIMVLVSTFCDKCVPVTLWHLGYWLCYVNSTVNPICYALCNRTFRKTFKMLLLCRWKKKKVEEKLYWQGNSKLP", "assay": "Amplification of transfected NIH3T3 cells was measured in Muscarinic acetylcholine receptor M5 required to produce half maximal effect", "format": "functional, cell-based"}, "[3]": {"target": "T2, Muscarinic acetylcholine receptor M1 (Homo sapiens) (UniProt P11229)", "T2 sequence (whole entry)": "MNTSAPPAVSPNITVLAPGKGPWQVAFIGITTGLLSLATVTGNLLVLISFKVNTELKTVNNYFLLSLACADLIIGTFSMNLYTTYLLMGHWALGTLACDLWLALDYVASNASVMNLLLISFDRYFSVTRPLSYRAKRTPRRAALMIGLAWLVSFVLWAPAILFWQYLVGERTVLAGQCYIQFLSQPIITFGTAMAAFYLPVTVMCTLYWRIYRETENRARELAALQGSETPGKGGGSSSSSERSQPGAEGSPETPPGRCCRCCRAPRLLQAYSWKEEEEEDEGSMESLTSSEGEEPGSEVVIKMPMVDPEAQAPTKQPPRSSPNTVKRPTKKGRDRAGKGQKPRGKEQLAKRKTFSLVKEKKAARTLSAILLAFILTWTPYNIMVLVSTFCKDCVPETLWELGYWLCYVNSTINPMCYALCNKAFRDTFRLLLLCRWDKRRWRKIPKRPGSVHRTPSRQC", "assay": "Stimulation of inositol phosphate(PI) accumulation in CHO cells expressing Muscarinic acetylcholine receptor M1 as maximal response at 100 uM relative to carbachol", "format": "functional, cell-based"}, "[4]": {"target": "T3, Muscarinic acetylcholine receptor M2 (Homo sapiens) (UniProt P08172)", "T3 sequence (whole entry)": "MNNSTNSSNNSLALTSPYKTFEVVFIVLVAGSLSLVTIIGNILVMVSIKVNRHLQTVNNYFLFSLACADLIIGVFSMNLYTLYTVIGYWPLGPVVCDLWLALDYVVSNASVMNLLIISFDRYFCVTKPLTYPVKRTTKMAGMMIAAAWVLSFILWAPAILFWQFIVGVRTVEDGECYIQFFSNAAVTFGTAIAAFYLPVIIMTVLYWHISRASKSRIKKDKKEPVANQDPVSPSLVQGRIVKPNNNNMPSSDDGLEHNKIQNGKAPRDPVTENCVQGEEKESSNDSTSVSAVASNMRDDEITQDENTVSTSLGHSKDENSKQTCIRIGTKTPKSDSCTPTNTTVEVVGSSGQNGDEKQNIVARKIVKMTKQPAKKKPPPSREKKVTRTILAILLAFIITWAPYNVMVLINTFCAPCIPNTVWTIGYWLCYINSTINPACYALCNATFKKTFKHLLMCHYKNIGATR", "assay": "Reversal of forskolin-stimulated accumulation of […] in transfected CHO cells, against Muscarinic acetylcholine receptor M2; Not active up to 1 mM", "format": "functional, cell-based"}, "[5]": {"target": "T4, Muscarinic acetylcholine receptor M4 (Homo sapiens) (UniProt P08173)", "T4 sequence (whole entry)": "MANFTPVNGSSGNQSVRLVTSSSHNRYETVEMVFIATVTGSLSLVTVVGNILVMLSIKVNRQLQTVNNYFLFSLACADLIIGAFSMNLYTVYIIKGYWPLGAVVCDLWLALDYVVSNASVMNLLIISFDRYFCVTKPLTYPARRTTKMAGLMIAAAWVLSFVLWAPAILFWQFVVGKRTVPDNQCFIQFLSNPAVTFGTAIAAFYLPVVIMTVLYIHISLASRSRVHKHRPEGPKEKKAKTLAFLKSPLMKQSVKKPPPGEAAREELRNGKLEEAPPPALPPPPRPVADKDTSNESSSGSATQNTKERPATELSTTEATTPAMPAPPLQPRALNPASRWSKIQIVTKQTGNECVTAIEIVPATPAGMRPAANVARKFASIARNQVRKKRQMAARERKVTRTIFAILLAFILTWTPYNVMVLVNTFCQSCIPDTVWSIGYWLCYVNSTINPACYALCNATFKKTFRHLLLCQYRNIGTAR", "assay": "Amplification of transfected NIH3T3 cells was measured in Muscarinic acetylcholine receptor M4 required to produce half maximal effect", "format": "functional, cell-based"}, "[6]": {"target": "T5, Muscarinic acetylcholine receptor M1 (Homo sapiens, UniProt P11229)", "T5 sequence (P11229 whole entry)": "T2 sequence (whole entry)", "assay": "biochemical", "format": "cell-based, CHO", "description": "Binding affinity of [3H]-QNB to CHO cells expressing human Muscarinic acetylcholine receptor M1"}, "[7]": {"target": "T2, Muscarinic acetylcholine receptor M1 (Homo sapiens)", "conditions": "NIH3T3", "description": "Amplification of transfected NIH3T3 cells was measured in Muscarinic acetylcholine receptor M1 required to produce half maximal effect"}, "[8]": {"target": "Muscarinic acetylcholine receptor M3 (Homo sapiens) (UniProt P20309)", "assay": "Maximal response obtained for each drug normalized to effect of carbachol in Muscarinic acetylcholine receptor M3", "format": "functional"}, "[9]": {"target": "T6, Muscarinic acetylcholine receptor M2 (Homo sapiens, UniProt P08172)", "T6 sequence (P08172 whole entry)": "T3 sequence (whole entry)", "assay": "Binding affinity of [3H]QNB to CHO cells expressing human Muscarinic acetylcholine receptor M2", "format": "cell-based"}, "[10]": {"target": "T4, Muscarinic acetylcholine receptor M4 (Homo sapiens)", "assay": "Maximal response obtained for each drug normalized to effect of carbachol in Muscarinic acetylcholine receptor M4", "format": "functional"}, "[11]": {"target": "T1, Muscarinic acetylcholine receptor M5 (Homo sapiens)", "assay": "Stimulations of inositol phosphate(PI) accumulation in transfected CHO cells in Muscarinic acetylcholine receptor M5 values are the maximal response obtained from the compound tested at 100 uM normalized to the effects of carbachol.", "format": "functional, cell-based"}, "[12]": {"target": "T1, Muscarinic acetylcholine receptor M5 (Homo sapiens)", "assay": "Maximal response obtained for each drug normalized to effect of carbachol in Muscarinic acetylcholine receptor M5", "format": "functional"}, "[13]": {"target": "T3, Muscarinic acetylcholine receptor M2 (Homo sapiens)", "assay": "Maximal response obtained for each drug normalized to effect of carbachol in Muscarinic acetylcholine receptor M2", "format": "functional"}, "[14]": {"target": "T2, Muscarinic acetylcholine receptor M1 (Homo sapiens)", "assay": "Maximal response obtained for each drug normalized to effect of carbachol in Muscarinic acetylcholine receptor M1", "format": "functional"}, "[15]": {"target": "T3, Muscarinic acetylcholine receptor M2 (Homo sapiens)", "assay": "Amplification of transfected NIH3T3 cells was measured in Muscarinic acetylcholine receptor M2 required to produce half maximal effect", "format": "functional, cell-based"}, "[16]": {"target": "Muscarinic acetylcholine receptor M3 (Homo sapiens) (UniProt P20309)", "conditions": "NIH3T3", "description": "Amplification of transfected NIH3T3 cells was measured in Muscarinic acetylcholine receptor M3 required to produce half maximal effect"}, "[17]": {"target": "Muscarinic acetylcholine receptor (Rattus norvegicus) (UniProt P08482+P08483+P08485+P08911+P10980)", "assay": "Ratio of QNB binding to CMD binding was evaluated", "format": "protein assay"}, "[18]": {"target": "T4, Muscarinic acetylcholine receptor M4 (Homo sapiens)", "assay": "Reversal of forskolin-stimulated accumulation of […] in transfected CHO cells, against Muscarinic acetylcholine receptor M4; NA=Not active up to 1 mM", "format": "functional, cell-based"}, "[19]": {"target": "T2, Muscarinic acetylcholine receptor M1 (Homo sapiens)", "assay": "Stimulations of inositol phosphate(PI) accumulation in transfected CHO cells in Muscarinic acetylcholine receptor M1 values are the maximal response obtained from the compound tested at 100 uM normalized to the effects of carbachol.", "format": "functional, cell-based"}, "[20]": {"target": "T1, Muscarinic acetylcholine receptor M5 (Homo sapiens)", "assay": "Inositol phosphate(PI) accumulation in CHO cells expressing Muscarinic acetylcholine receptor M5 as maximal response at 100 uM relative to carbachol", "format": "functional, cell-based"}, "[21]": {"target": "T1, Muscarinic acetylcholine receptor M5 (Homo sapiens)", "assay": "Stimulations of inositol phosphate(PI) accumulation in transfected CHO cells in Muscarinic acetylcholine receptor M5 values are the maximal response obtained from the compound tested at 100 uM normalized to the effect of carbachol.", "format": "functional, cell-based"}, "[22]": {"target": "Muscarinic acetylcholine receptor M3 (Homo sapiens) (UniProt P20309)", "assay": "Stimulations of inositol phosphate(PI) accumulation in transfected CHO cells in Muscarinic acetylcholine receptor M3 values are the maximal response obtained from the compound tested at 100 uM normalized to the effect of carbachol.", "format": "functional, cell-based"}, "[23]": {"target": "T4, Muscarinic acetylcholine receptor M4 (Homo sapiens)", "assay": "Reversal of forskolin-stimulated accumulation of […] in transfected CHO cells, against Muscarinic acetylcholine receptor M4; Not active", "format": "functional, cell-based"}, "[24]": {"target": "T2, Muscarinic acetylcholine receptor M1 (Homo sapiens)", "assay": "Stimulations of inositol phosphate(PI) accumulation in transfected CHO cells in Muscarinic acetylcholine receptor M1 values are the maximal response obtained from the compound tested at 100 uM normalized to the effect of carbachol.", "format": "functional, cell-based"}, "[25]": {"target": "Muscarinic acetylcholine receptor", "assay": "Muscarinic acetylcholine receptor binding assay was conducted using [3H]quinuclidinyl benzilate (QNB) to label antagonist sites in membrane preparations from rat neocortex"}, "[26]": {"target": "T6, Muscarinic acetylcholine receptor M2", "assay": "Binding affinity of compound labeled by [3H]QNB in CHO cells selectively expressing human Muscarinic acetylcholine receptor M2", "format": "cell-based"}, "[27]": {"target": "Muscarinic acetylcholine receptor", "assay": "Muscarinic acetylcholine receptor binding assay was conducted using [3H]cis-methyldioxolane (CMD) to label agonist sites in membrane preparations from rat neocortex"}, "[28]": {"target": "T5, Muscarinic acetylcholine receptor M1", "assay": "Binding affinity of compound labeled by [3H]QNB in CHO cells selectively expressing human Muscarinic acetylcholine receptor M1", "format": "cell-based"}}, "note": "The source made the active and inactive calls. No cut-off for these calls is given here.", "data": [{"compound": "COc1cccc(C#CCO/N=C2\\CN3CCC2C3)c1", "note": "(stereo not given)", "values": [{"measurement": "CCh", "setting": "[1]", "value": 6, "unit": "%"}, {"measurement": "ED50", "setting": "[2]", "value": 5.99, "unit": "µM"}, {"measurement": "CCh", "setting": "[3]", "value": 82, "unit": "%"}, {"measurement": "ED50", "setting": "[4]", "value": "inactive"}, {"measurement": "ED50", "setting": "[5]", "value": 0.093, "unit": "µM"}, {"measurement": "IC50", "setting": "[6]", "value": 7.68, "unit": "µM"}, {"measurement": "ED50", "setting": "[7]", "value": 0.042, "unit": "µM"}, {"measurement": "CCh", "setting": "[8]", "value": 93, "unit": "%"}, {"measurement": "IC50", "setting": "[9]", "value": 52, "unit": "µM"}, {"measurement": "CCh", "setting": "[10]", "value": 68, "unit": "%"}, {"measurement": "CCh", "setting": "[11]", "value": 11, "unit": "%"}, {"measurement": "CCh", "setting": "[12]", "value": 103, "unit": "%"}, {"measurement": "CCh", "setting": "[13]", "value": 81, "unit": "%"}, {"measurement": "CCh", "setting": "[14]", "value": 30, "unit": "%"}, {"measurement": "ED50", "setting": "[15]", "value": 1.32, "unit": "µM"}, {"measurement": "ED50", "setting": "[16]", "value": 3.86, "unit": "µM"}, {"measurement": "Ratio", "setting": "[17]", "value": 250}, {"measurement": "ED50", "setting": "[18]", "value": "inactive"}]}, {"compound": "Clc1cccc(C#CCO/N=C2\\CN3CCC2C3)c1", "note": "(stereo not given)", "values": [{"measurement": "CCh", "setting": "[1]", "value": 4, "unit": "%"}, {"measurement": "IC50", "setting": "[6]", "value": 3.34, "unit": "µM"}, {"measurement": "CCh", "setting": "[19]", "value": 41, "unit": "%"}, {"measurement": "IC50", "setting": "[9]", "value": 20.6, "unit": "µM"}, {"measurement": "Ratio", "setting": "[17]", "value": 203}, {"measurement": "CCh", "setting": "[20]", "value": 3, "unit": "%"}]}, {"compound": "C(#Cc1ccccc1)CO/N=C1\\CN2CCC1C2", "note": "(stereo not given)", "values": [{"measurement": "Stimulations", "setting": "[21]", "value": 1, "unit": "%"}, {"measurement": "ED50", "setting": "[4]", "value": "inactive"}, {"measurement": "Stimulations", "setting": "[22]", "value": 8, "unit": "%"}, {"measurement": "ED50", "setting": "[23]", "value": "inactive"}, {"measurement": "Stimulations", "setting": "[24]", "value": 40, "unit": "%"}, {"measurement": "Ratio", "setting": "[17]", "value": 108}]}, {"compound": "CC(C)=CCO/N=C1\\CN2CCC1C2", "note": "(stereo not given)", "values": [{"measurement": "IC50", "setting": "[25]", "value": 1.27, "unit": "µM"}, {"measurement": "IC50", "setting": "[26]", "value": 0.519, "unit": "µM"}, {"measurement": "IC50", "setting": "[27]", "value": 0.00708, "unit": "µM"}, {"measurement": "IC50", "setting": "[28]", "value": 0.216, "unit": "µM"}, {"measurement": "Ratio", "setting": "[17]", "value": 179}]}]}
